The text below walks through data of patent publication EP1948196B1, “USE OF TETRAORGANOSILICON COMPOUNDS” (Salama, Zoser B., priority 2005, dated 2007).

The structures appear in SMILES notation. In brackets after ≈: the same amount, converted by molar mass. Numbered stars: 1 amine (or outer) side, 2 acyl side, 3 side chain; on linkers, the order of the positions; unused ones are H or OH. Bridge positions count the residues as written; N and C are the ends. Peptide text beside a SMILES is read from it. I, II: the chains in the order shown. X2 = c1ccc([Si](O[*:1])(O[*:2])c2ccccc2)cc1; OSiEt2O = CC[Si](CC)(O[*:1])O[*:2]

The test system of one data set is Lymphome. The data set can be described thus: Effect on lymphomas.
The subject of data set [1] is Plattenepihtelkarzinomen oder Plasmozytomen. The data set can be described thus: Effect against metastasis in rats. The data set is classed as in vivo. The conditions noted are these: in Ratten.
Data set [2] has as its system Kälber-Aortenendothelzellinie BKEz-7. The data set can be described thus: tissue or blood. The data set is classed as cell-based. The text has this: Prüfung auf zytotoxisches Potential an Kälber-Aortenendothelzellinie BKEz-7
Als Marker für eine zytotoxische Wirkung wird bei Zellen der charakterisierten Kälber-Aortenendothelzellinie BKEz-7 die Hemmkonzentration ermittelt, bei der eine 50%-ige Hemmung der Zellproliferation erfolgt (im Vergleich zu Kontrollkulturen ohne Zusatz eines Zellinhibitors). Die resultierende Reduzierung der Zellzahl um 50% wird als IC 50 ausgedrückt. Die getesteten Silanverbindungen wurden als Suspensionen auf die Kulturen gegeben und 48 Stunden bei 37°C inkubiert. Zusätzlich erfolgten morphologische Kontrollen und Vitalitätsbestimmungen mittels dem Neutralrot-Test. Mit Ausnahme des Di(dodecanoyloxy)dimethylsilans standen alle Ergebnisse der morphologischen Untersuchungen in guter Übereinstimmung. […]

The subject of a further data set is Maus. The data set can be described thus: Pharmacological observation in the mouse (central, vegetative and toxic effects, acute toxicity). The data set is classed as in vivo. The source says:
Pharmakologische Untersuchungen an der Maus
Die Verbindungen wurden an der Maus auf zentrale, vegetative und toxische Effekte geprüft. Durch systemische Einzelbeobachtungen sind neben der akuten Toxizität (orienberende letale Dosis, oLD) zentrale und vegetative Wirkungen der Testsubstanzen, insbesondere Effekte auf die Motorik und das Reaktionsvermögen, die Haut- und Rektaltemperatur sowie auf die Pupillenmotorik erfasst worden. Die getesteten Dosierungen betrugen 5 •10^-4, 1 • 10^-3 und 5 • 10^-3 mol/kg Körpergewicht Letale Wirkungen konnten bei keiner der Verbindungen beobachtet werden. Die oLD lag für Di(tetradecanoyloxy)dimethylsilan und Di(octadecanoyloxy)dimethylsilan unter 1 • 10^-3 mol/kg Körpergewicht für alle übrigen Verbindungen unter 5 • 10^-3 mollkg Körpergewicht.

In another data set the test system is Basalzellkarzinome. The data set can be described thus: Effect on basal cell carcinomas.
In another data set the test system is Angiosarkome. The data set can be described thus: Effect on angiosarcomas.
Data set [3] deals with BxPC3 (pankreatisches Adenokarzinom). Briefly: MTT test, triplicate, two-fold dilutions. The format is cell-based. The conditions noted are these: Homo sapiens, BXPC-3; up to 500 µg/ml; read-out: IC50 BxPC3. The method, then:
(§1) Die Silan wurden in Ethanol aufgelöst und in Zellkulturmedien in Konzentrationen von bis zu 500 µg/ml resuspendiert. Es wurden MTT Tests in dreifacher Ausführung durchgeführt, für welche doppelte Lösungen (7 Schritte) und colo205 (Kofon-Karzinom), BxPC3 (pankreatisches Adenokarzinom) sowie T47D (Brustkrebs) benutzt wurden.

The next data set deals with T47D (Brustkrebs). The data set can be described thus: MTT test, triplicate, two-fold dilutions. The format is cell-based. The conditions noted are these: Homo sapiens, T47D; up to 500 µg/ml; read-out: IC50 T47D. The method, then:
as §1

The next data set concerns colo205 (Kofon-Karzinom). Briefly: MTT test, triplicate, two-fold dilutions. The data set is classed as cell-based. The conditions noted are these: Homo sapiens, COLO 205; up to 500 µg/ml; read-out: IC50 Colo205. The method, then: as §1

For `CCCCCCCC/C=C\CCCCCCCC(=O)O[Si](C)(C)OC(=O)CCCCCCC/C=C\CCCCCCCC`, in the data set with Lymphome, the “Wirkung auf Lymphome” value was “zeigen eine Wirkung”. For the compound `CC/C=C\C/C=C\C/C=C\CCCCCCCC(=O)O[Si](C)(C)OC(=O)CCCCCCC/C=C\C/C=C\C/C=C\CC` [Di (lino-lenoylooxy)dimethylsilan], the “Wirkung auf Lymphome” value in the data set with Lymphome is “zeigen eine Wirkung”. On the same count and under the same terms, to `CCCCCCCCCCCCCCCCC(=O)O[Si](OC(=O)CCCCCCCCCCCCCCCC)(C(C)C)C(C)C` [Di(heptadecanoyloxy)diisopropylsilan] belongs “zeigen eine Wirkung”. `CCCCCCCCCCCCCCCCC(=O)O[Si](C)(C)OC(=O)CCCCCCCCCCCCCCCC` [Di(heptadecanoyloxy)dimethylslan]: the “Wirkung gegen die Metastasierung von Plattenepihtelkarzinomen oder Plasmozytomen” value in data set [1] is on record as “zeigen eine Wirkung”. For the compound `CCCCC/C=C\C/C=C\CCCCCCCC(=O)O[Si](CC)(CC)OC(=O)CCCCCCC/C=C\C/C=C\CCCCC` [Di(linoylooxy)diethylsilan], the “Wirkung auf Lymphome” value with Lymphome was “zeigen eine Wirkung”.

Consider `CCCCC/C=C\C/C=C\CCCCCCCC(=O)O[Si](C)(C)OC(=O)CCCCCCC/C=C\C/C=C\CCCCC` [Di(linoylooxy)dimethylsilan], for which the “Wirkung auf Lymphome” value in the data set on Lymphome was “zeigen eine Wirkung”. Consider `CCCCCCCCC(=O)O[Si](CC)(CC)OC(=O)CCCCCCCC` [Di(nonanoyloxy)diethyisilan], for which, in data set [1], the “Wirkung gegen die Metastasierung von Plattenepihtelkarzinomen oder Plasmozytomen” value is given as “zeigen eine Wirkung”. As for `CCCCCCCCCCCCCCCCCC(=O)O[Si](OC(=O)CCCCCCCCCCCCCCCCC)(C(C)C)C(C)C` [Di(octadecanoyloxy)diisopropylsilan], in the data set on Lymphome, the “Wirkung auf Lymphome” value is given as “zeigen eine Wirkung”. In the case of `CCCCCCCC(=O)O[Si](CC)(CC)OC(=O)CCCCCCC` [Di(octanoyloxy)diethylsilan], in data set [1], the “Wirkung gegen die Metastasierung von Plattenepihtelkarzinomen oder Plasmozytomen” value is “zeigen eine Wirkung”.

Consider `CCCCCCCC(=O)O[Si](OC(=O)CCCCCCC)(c1ccccc1)c1ccccc1` [Di(octanoyloxy)diphenylsilan], for which the “Bedenkliche Toxizität” value in data set [2] is “-”. Also, the concentration for half-maximal inhibition (IC50) in [2] (suspensions, 48 Stunden bei 37°C) is > 20 µM. The “zentrale, vegetative und toxische Effekte (Verhaltensänderungen)” value is reported as “Ataxie, Hyper-aktivität” in the data set with Maus (1•10^-3 mol/kg); “schwache Ataxie, Hyperaktivität” in the data set on Maus (5•10^-3 mol/kg); “schwache Hyperaktivität” in the data set with Maus (5•10^-4 mol/kg). In the data set with Basalzellkarzinome, the “Wirkung auf Basalzellkarzinome” value is “zeigen eine Wirkung”.

Regarding `CCCCCCCCCCCCCCC(=O)O[Si](C)(C)OC(=O)CCCCCCCCCCCCCC` [Di(pentadecanoyloxy)dimethylsilan], the “Wirkung gegen die Metastasierung von Plattenepihtelkarzinomen oder Plasmozytomen” value in data set [1] is on record as “zeigen eine Wirkung”.

For `CC[Si](CC)(OC(=O)CNC(=O)CNC(=O)CNC(=O)CNC(=O)CNC(=O)CN)OC(=O)CNC(=O)CNC(=O)CNC(=O)CNC(=O)CNC(=O)CN` [Diethyl bis(hexaglycyl)Silylester], the “Wirkung gegen Angiosarkome” value with Angiosarkome is “zeigen eine Wirkung”. On to `CC[Si](CC)(OC(=O)CNC(=O)CNC(=O)CNC(=O)CNC(=O)CNC(=O)CNC(=O)CNC(=O)CN)OC(=O)CNC(=O)CNC(=O)CNC(=O)CNC(=O)CNC(=O)CNC(=O)CNC(=O)CN` [Diethyl bis(octablycyl)silylester] (I: H-GGGGGGGG / II: H-GGGGGGGG; linker I:C-II:C via OSiEt2O), for which, in the data set on Angiosarkome, the “Wirkung gegen Angiosarkome” value was “zeigen eine Wirkung”. On the same count and under the same terms, to `C[C@H](N)C(=O)N[C@@H](C)C(=O)N[C@@H](C)C(=O)N[C@@H](C)C(=O)N[C@@H](C)C(=O)N[C@@H](C)C(=O)N[C@@H](C)C(=O)N[C@@H](C)C(=O)N[C@@H](C)C(=O)N[C@@H](C)C(=O)O[Si](OC(=O)[C@H](C)NC(=O)[C@H](C)NC(=O)[C@H](C)NC(=O)[C@H](C)NC(=O)[C@H](C)NC(=O)[C@H](C)NC(=O)[C@H](C)NC(=O)[C@H](C)NC(=O)[C@H](C)NC(=O)[C@H](C)N)(c1ccccc1)c1ccccc1` [Diphenyl bis(decaalanyl)silylester] belongs “zeigen eine Wirkung”; to `CC(C)[C@H](N)C(=O)N[C@H](C(=O)N[C@H](C(=O)N[C@H](C(=O)N[C@H](C(=O)N[C@H](C(=O)N[C@H](C(=O)O[Si](OC(=O)[C@@H](NC(=O)[C@@H](NC(=O)[C@@H](NC(=O)[C@@H](NC(=O)[C@@H](NC(=O)[C@@H](NC(=O)[C@@H](N)C(C)C)C(C)C)C(C)C)C(C)C)C(C)C)C(C)C)C(C)C)(c1ccccc1)c1ccccc1)C(C)C)C(C)C)C(C)C)C(C)C)C(C)C)C(C)C` [Diphenyl bis(heptavalyl)silylester] (I: H-VVVVVVV / II: H-VVVVVVV; linker I:C-II:C via X2), “zeigen eine Wirkung”.

Turning to `CC(C)[C@H](N)C(=O)N[C@H](C(=O)N[C@H](C(=O)N[C@H](C(=O)N[C@H](C(=O)N[C@H](C(=O)O[Si](OC(=O)[C@@H](NC(=O)[C@@H](NC(=O)[C@@H](NC(=O)[C@@H](NC(=O)[C@@H](NC(=O)[C@@H](N)C(C)C)C(C)C)C(C)C)C(C)C)C(C)C)C(C)C)(c1ccccc1)c1ccccc1)C(C)C)C(C)C)C(C)C)C(C)C)C(C)C` [Diphenyl bis(hexavalyl)silylester] (I: H-VVVVVV / II: H-VVVVVV; linker I:C-II:C via X2), the “Wirkung gegen Angiosarkome” value with Angiosarkome is reported as “zeigen eine Wirkung”. `CC(C)[C@H](N)C(=O)N[C@H](C(=O)N[C@H](C(=O)N[C@H](C(=O)N[C@H](C(=O)N[C@H](C(=O)N[C@H](C(=O)N[C@H](C(=O)N[C@H](C(=O)O[Si](OC(=O)[C@@H](NC(=O)[C@@H](NC(=O)[C@@H](NC(=O)[C@@H](NC(=O)[C@@H](NC(=O)[C@@H](NC(=O)[C@@H](NC(=O)[C@@H](NC(=O)[C@@H](N)C(C)C)C(C)C)C(C)C)C(C)C)C(C)C)C(C)C)C(C)C)C(C)C)C(C)C)(c1ccccc1)c1ccccc1)C(C)C)C(C)C)C(C)C)C(C)C)C(C)C)C(C)C)C(C)C)C(C)C` [Diphenyl bis(nonavalyl)silylester] (I: H-VVVVVVVVV / II: H-VVVVVVVVV; linker I:C-II:C via X2): the “Wirkung gegen Angiosarkome” value with Angiosarkome is given as “zeigen eine Wirkung”. For the compound `CC(C)[C@H](N)C(=O)N[C@H](C(=O)N[C@H](C(=O)N[C@H](C(=O)N[C@H](C(=O)N[C@H](C(=O)N[C@H](C(=O)N[C@H](C(=O)O[Si](OC(=O)[C@@H](NC(=O)[C@@H](NC(=O)[C@@H](NC(=O)[C@@H](NC(=O)[C@@H](NC(=O)[C@@H](NC(=O)[C@@H](NC(=O)[C@@H](N)C(C)C)C(C)C)C(C)C)C(C)C)C(C)C)C(C)C)C(C)C)C(C)C)(c1ccccc1)c1ccccc1)C(C)C)C(C)C)C(C)C)C(C)C)C(C)C)C(C)C)C(C)C` [Diphenyl bis(octavalyl)silylester] (I: H-VVVVVVVV / II: H-VVVVVVVV; linker I:C-II:C via X2), in the data set with Angiosarkome, the “Wirkung gegen Angiosarkome” value is “zeigen eine Wirkung”.

As to `CC(C)[C@H](N)C(=O)N[C@H](C(=O)N[C@H](C(=O)N[C@H](C(=O)N[C@H](C(=O)O[Si](OC(=O)[C@@H](NC(=O)[C@@H](NC(=O)[C@@H](NC(=O)[C@@H](NC(=O)[C@@H](N)C(C)C)C(C)C)C(C)C)C(C)C)C(C)C)(c1ccccc1)c1ccccc1)C(C)C)C(C)C)C(C)C)C(C)C` [Diphenyl bis(pentavalyl)silylester], the “Wirkung gegen Angiosarkome” value in the data set with Angiosarkome is “zeigen eine Wirkung”.

`CC(C)[C@H](N)C(=O)N[C@H](C(=O)N[C@H](C(=O)N[C@H](C(=O)O[Si](OC(=O)[C@@H](NC(=O)[C@@H](NC(=O)[C@@H](NC(=O)[C@@H](N)C(C)C)C(C)C)C(C)C)C(C)C)(c1ccccc1)c1ccccc1)C(C)C)C(C)C)C(C)C` [Diphenyl bis(tetravalyl)silylester]: in the data set on Angiosarkome, the “Wirkung gegen Angiosarkome” value is reported as “zeigen eine Wirkung”. Take `CCCCCCCCCCC(=O)O[Si](C)(C)OC(=O)CCCCCCCCCC` [Si 2, Di (undecanoyloxy) dimethylsilan]: the IC50 stood at 80 mg/L (≈ 187 µM) in data set [3], 125 mg/L (≈ 292 µM) in the data set on T47D (Brustkrebs) and 125 mg/L (≈ 292 µM) in the data set on colo205 (Kofon-Karzinom). Moreover, the “Wirkung gegen die Metastasierung von Plattenepihtelkarzinomen oder Plasmozytomen” value in data set [1] is on record as “zeigen eine Wirkung”. For the compound `CCCCCCCCCCCCCCCC(=O)O[Si](OC(=O)CCCCCCCCCCCCCCC)(c1ccccc1)c1ccccc1` [Si 8, Di (hexadecanoyloxy) diphenylsilan], the IC50 in data set [3] came to 30 mg/L (≈ 43.3 µM); with T47D (Brustkrebs), 20 mg/L (≈ 28.9 µM); in the data set with colo205 (Kofon-Karzinom), 300 mg/L (≈ 433 µM). In addition, the “zentrale, vegetative und toxische Effekte (Verhaltensänderungen)” value with Maus (1•10^-3 mol/kg) is given as “keine Verhaltensänderungen”; with Maus (5•10^-3 mol/kg), “schwache Ataxie, Hyperaktivität und Piloerektion, Straubtail”; with Maus (5•10^-4 mol/kg), “keine Verhaltensänderungen”. The “Wirkung auf Basalzellkarzinome” value in the data set with Basalzellkarzinome is “zeigen eine Wirkung”.
